Results from patent US20250034135A1, “ANTI-APOPTOTIC PROTEIN BCL-2 INHIBITOR, PHARMACEUTICAL COMPOSITION AND USES THEREOF” (HANGZHOU HEALZEN THERAPEUTICS CO., LTD., priority 2021, published 2025).

Target: BCL2 (Homo sapiens (Human), UniProt P10415)
Test: Molecular level activity test of anti-apoptotic protein BCL2 (HTRF, binding to Bim peptide)
Details: HTRF, binding of BCL2 to Bim peptide; read-out: BCL2 nM (inhibitory activity, IC50)
Procedure, shortened: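 Signal comes from proximity of anti-His-labelled BCL2 and streptavidin-XL665-bound biotin-BIM peptide. Test compounds, added in 2% DMSO, were preincubated with protein and peptide for one hour; detection reagents then incubated four hours at room temperature before reading.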

Chain of BCL2 (P10415 whole entry): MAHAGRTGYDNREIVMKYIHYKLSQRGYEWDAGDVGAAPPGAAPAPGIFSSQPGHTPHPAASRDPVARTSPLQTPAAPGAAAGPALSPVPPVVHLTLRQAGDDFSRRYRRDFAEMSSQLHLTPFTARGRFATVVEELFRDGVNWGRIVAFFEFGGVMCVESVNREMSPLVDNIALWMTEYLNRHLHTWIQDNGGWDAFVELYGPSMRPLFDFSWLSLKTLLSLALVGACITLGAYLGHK

Structure (SMILES) | IC50 [nM]
COc1ccc(CN2CCN(C3CC4(C3)CN(c3cc(Oc5cnc6[nH]ccc6c5)c(C(=O)NS(=O)(=O)c5cc([N+](=O)[O-])c(NCC6(F)CCN(C(C)C)CC6)c6[nH]cnc56)cn3)C4)C(c3ccccc3C(C)C)C2)cc1 (stereo not drawn) [compound 070, 4-((1H-pyrrolo[2,3-b]pyrid-5-yl)oxy)-N-((7-(((4-fluoro-1-isopropylpiperid-4-yl)methyl)amino)-6-nitro-1H-benzo[d]imidazol-4-yl)sulfonyl)-6-(6-(2-(2-isopropylphenyl)-4-(4-methoxybenzyl)piperazin-1-yl)-2-azaspiro[3.3]hept-2-yl) nicotinamide] | < 10
COc1ccc(CN2CCN(C3CC4(CCN(c5cc(Oc6cnc7[nH]ccc7c6)c(C(=O)NS(=O)(=O)c6cc([N+](=O)[O-])c(NC[C@H]7CC[C@](C)(O)CC7)c7[nH]cnc67)cc5F)CC4)C3)C(c3ccccc3C(C)C)C2)cc1 (stereo partly drawn) [compound 071, 2-((1H-pyrrolo[2,3-b]pyrid-5-yl)oxy)-5-fluoro-N-((7-((((1r,4r)-4-hydroxy-4-methylcyclohexyl)methyl)amino)-6-nitro-1H-benzo[d]imidazol-4-yl)sulfonyl)-4-(2-(2-(2-isopropylphenyl)-4-(4-methoxybenzyl)piperazin-1-yl)-7-azaspiro[3.5]non-7-yl)benzamide] | < 10
COc1ccc(CN2CCN(C3CC4(C3)CN(c3cc(Oc5cnc6[nH]ccc6c5)c(C(=O)NS(=O)(=O)c5cc([N+](=O)[O-])c(NC[C@H]6CC[C@](C)(O)CC6)c6[nH]cnc56)cc3F)C4)C(c3ccccc3C(C)C)C2)cc1 (stereo partly drawn) [compound 072, 2-((1H-pyrrolo[2,3-b]pyrid-5-yl)oxy)-5-fluoro-N-((7-((((1r,4r)-4-hydroxy-4-methylcyclohexyl)methyl)amino)-6-nitro-1H-benzo[d]imidazol-4-yl)sulfonyl)-4-(6-(2-(2-isopropylphenyl)-4-(4-methoxybenzyl)piperazin-1-yl)-2-azaspiro[3.3]hept-2-yl)benzamide] | < 10
COc1ccc(CN2CCN(C3CC4(CCN(c5cc(Oc6cnc7[nH]ccc7c6)c(C(=O)NS(=O)(=O)c6cc([N+](=O)[O-])c(NCC7(F)CCN(C(C)C)CC7)c7[nH]cnc67)cc5F)CC4)C3)C(c3ccccc3C(C)C)C2)cc1 (stereo not drawn) [compound 073, 2-((1H-pyrrolo[2,3-b]pyrid-5-yl)oxy)-5-fluoro-N-((7-(((4-fluoro-1-isopropylpiperid-4-yl)methyl)amino)-6-nitro-1H-benzo[d]imidazol-4-yl)sulfonyl)-4-(2-(2-(2-isopropylphenyl)-4-(4-methoxybenzyl)piperazin-1-yl)-7-azaspiro[3.5]non-7-yl)benzamide] | < 10
COc1ccc(CN2CCN(C3CC4(C3)CN(c3cc(Oc5cnc6[nH]ccc6c5)c(C(=O)NS(=O)(=O)c5cc([N+](=O)[O-])c(NCC6(F)CCN(C(C)C)CC6)c6[nH]cnc56)cc3F)C4)C(c3ccccc3C(C)C)C2)cc1 (stereo not drawn) [compound 074, 2-((1H-pyrrolo[2,3-b]pyrid-5-yl)oxy)-5-fluoro-N-((7-(((4-fluoro-1-isopropylpiperid-4-yl)methyl)amino)-6-nitro-1H-benzo[d]imidazol-4-yl)sulfonyl)-4-(6-(2-(2-isopropylphenyl)-4-(4-methoxybenzyl)piperazin-1-yl)-2-azaspiro[3.3]hept-2-yl)benzamide] | < 10
COc1ccc(CN2CCN(C3CC4(CCN(c5cc(Oc6cnc7[nH]ccc7c6)c(C(=O)NS(=O)(=O)c6cc([N+](=O)[O-])c(NCC7CCOCC7)c7[nH]cnc67)cn5)CC4)C3)C(c3ccccc3C(C)C)C2)cc1 (stereo not drawn) [compound 075, 4-((1H-pyrrolo[2,3-b]pyrid-5-yl)oxy)-6-(2-(2-(2-isopropylphenyl)-4-(4-methoxybenzyl)piperazin-1-yl)-7-azaspiro[3.5]non-7-yl)-N-((6-nitro-7-(((tetrahydro-2H-pyran-4-yl)methyl)amino)-1H benzo[d]imidazol-4-yl)sulfonyl) nicotinamide] | < 10
COc1ccc(CN2CCN(C3CC4(CCN(c5cc(Oc6cnc7[nH]ccc7c6)c(C(=O)NS(=O)(=O)c6cc([N+](=O)[O-])c(NCC7CCOCC7)c7[nH]cnc67)cc5F)CC4)C3)C(c3ccccc3C(C)C)C2)cc1 (stereo not drawn) [compound 076, 2-((1H-pyrrolo[2,3-b]pyrid-5-yl)oxy)-5-fluoro-4-(2-(2-(2-isopropylphenyl)-4-(4-methoxybenzyl)piperazin-1-yl)-7-azaspiro[3.5]non-7-yl)-N-((6-nitro-7-(((tetrahydro-2H-pyran-4-yl)methyl)amino)-1H-benzo[d]imidazol-4-yl)sulfonyl)benzamide] | < 10
COc1ccc(CN2CCN(C3CC4(CCN(c5cc(Oc6cnc7[nH]ccc7c6)c(C(=O)NS(=O)(=O)c6cc([N+](=O)[O-])c(NCC7(F)CCOCC7)c7[nH]cnc67)cn5)CC4)C3)C(c3ccccc3C(C)C)C2)cc1 (stereo not drawn) [compound 077, 4-((1H-pyrrolo[2,3-b]pyrid-5-yl)oxy)-N-((7-(((4-fluorotetrahydro-2H-pyran-4-yl)methyl)amino)-6-nitro-1H-benzo[d]imidazol-4-yl)sulfonyl)-6-(2-(2-(2-isopropylphenyl)-4-(4-methoxybenzyl)piperazin-1-yl)-7-azaspiro[3.5]non-7-yl) nicotinamide] | < 10
COc1ccc(CN2CCN(C3CC4(CCN(c5cc(Oc6cnc7[nH]ccc7c6)c(C(=O)NS(=O)(=O)c6cc([N+](=O)[O-])c(NCC7(F)CCOCC7)c7[nH]cnc67)cc5F)CC4)C3)C(c3ccccc3C(C)C)C2)cc1 (stereo not drawn) [compound 078, 2-((1H-pyrrolo[2,3-b]pyrid-5-yl)oxy)-5-fluoro-N-((7-(((4-fluorotetrahydro-2H-pyran-4-yl)methyl)amino)-6-nitro-1H-benzo[d]imidazol-4-yl)sulfonyl)-4-(2-(2-(2-isopropylphenyl)-4-(4-methoxybenzyl)piperazin-1-yl)-7-azaspiro[3.5]non-7-yl)benzamide] | < 10
CC(C)c1ccccc1[C@@H]1CCCN1C1CC2(CCN(c3ccc(C(=O)NS(=O)(=O)c4cc([N+](=O)[O-])c(NC[C@H]5CC[C@](C)(O)CC5)c5[nH]cnc45)c(N4CCOc5nc6[nH]ccc6cc54)c3)CC2)C1 [compound 079, 2-(2,3-dihydropyrrolo[3′,2′:5,6]pyridino[2,3-b][1,4]oxazin-1 (6H)-yl)-N-((7-((((1r,4r)-4-hydroxy-4-methylcyclohexyl)methyl)amino)-6-nitro-1H-benzo[d]imidazol-4-yl)sulfonyl)-4-(2-((S)-2-(2-isopropylphenyl)pyrrolidin-1-yl)-7-azaspiro[3.5]non-7-yl)benzamide] | < 10
CC(C)c1ccccc1[C@@H]1CCCN1C1CC2(CCN(c3ccc(C(=O)NS(=O)(=O)c4cc([N+](=O)[O-])c(NCC5(F)CCN(C6COC6)CC5)c5[nH]cnc45)c(N4CCOc5nc6[nH]ccc6cc54)c3)CC2)C1 [compound 080, (S)-2-(2,3-dihydropyrrolo[3′,2′:5,6]pyridino[2,3-b][1,4]oxazin-1 (6H)-yl)-N-((7-(((4-fluoro-1-(oxocyclobut-3-yl)piperid-4-yl)methyl)amino)-6-nitro-1H-benzo[d]imidazol-4-yl)sulfonyl)-4-(2-(2-(2-isopropylphenyl)pyrrolidin-1-yl)-7-azaspiro[3.5]non-7-yl)benzamide] | < 10
CC(C)c1ccccc1[C@@H]1CCCN1C1CC2(CCN(c3cc(N4CCOc5nc6[nH]ccc6cc54)c(C(=O)NS(=O)(=O)c4cc([N+](=O)[O-])c(NC[C@H]5CC[C@](C)(O)CC5)c5[nH]cnc45)cn3)CC2)C1 [compound 081, 4-(2,3-dihydropyrrolo[3′,2′:5,6]pyridino[2,3-b][1,4]oxazin-1 (6H)-yl)-N-((7-((((1r,4r)-4-hydroxy-4-methylcyclohexyl)methyl)amino)-6-nitro-1H-benzo[d]imidazol-4-yl)sulfonyl)-6-(2-((S)-2-(2-isopropylphenyl)pyrrolidin-1-yl)-7-azaspiro[3.5]non-7-yl) nicotinamide] | < 10
CC(C)c1ccccc1[C@@H]1CCCN1C1CC2(CCN(c3cc(N4CCOc5nc6[nH]ccc6cc54)c(C(=O)NS(=O)(=O)c4cc([N+](=O)[O-])c(NC[C@H]5CC[C@](C)(O)CC5)c5[nH]cnc45)cc3F)CC2)C1 [compound 082, 2-(2,3-dihydropyrrolo[3′,2′:5,6]pyridino[2,3-b][1,4]oxazin-1 (6H)-yl)-5-fluoro-N-((7-((((1r,4r)-4-hydroxy-4-methylcyclohexyl)methyl)amino)-6-nitro-1H-benzo[d]imidazol-4-yl)sulfonyl)-4-(2-((S)-2-(2-isopropylphenyl)pyrrolidin-1-yl)-7-azaspiro[3.5]non-7-yl)benzamide] | < 10
CC(C)c1ccccc1[C@@H]1CCCN1C1CC2(CCN(c3cc(N4CCOc5nc6[nH]ccc6cc54)c(C(=O)NS(=O)(=O)c4cc([N+](=O)[O-])c(NCC5(F)CCN(C(C)C)CC5)c5[nH]cnc45)cn3)CC2)C1 [compound 083, (S)-4-(2,3-dihydropyrrolo[3′,2′:5,6]pyridino[2,3-b][1,4]oxazin-1 (6H)-yl)-N-((7-(((4-fluoro-1-isopropylpiperid-4-yl)methyl)amino)-6-nitro-1H-benzo[d]imidazol-4-yl)sulfonyl)-6-(2-(2-(2-isopropylphenyl)pyrrolidin-1-yl)-7-azaspiro[3.5]non-7-yl) nicotinamide] | < 10
CC(C)c1ccccc1[C@@H]1CCCN1C1CC2(CCN(c3cc(N4CCOc5nc6[nH]ccc6cc54)c(C(=O)NS(=O)(=O)c4cc([N+](=O)[O-])c(NCC5(F)CCN(C(C)C)CC5)c5[nH]cnc45)cc3F)CC2)C1 [compound 084, (S)-2-(2,3-dihydropyrrolo[3′,2′:5,6]pyridino[2,3-b][1,4]oxazin-1 (6H)-yl)-5-fluoro-N-((7-(((4-fluoro-1-isopropylpiperid-4-yl)methyl)amino)-6-nitro-1H-benzo[d]imidazol-4-yl)sulfonyl)-4-(2-(2-(2-isopropylphenyl)pyrrolidin-1-yl)-7-azaspiro[3.5]non-7-yl)benzamide] | < 10
